From patent publication EP3687536B1, “METHODS OF TREATING HEMOCHROMATOSIS AND RESPIRATORY DISORDERS” (MYMD PHARMACEUTICALS, INC., priority 2017, dated 2019)
Entries after “also recorded” stand apart in the source; their conditions may differ.

What was measured:
MAO-A = molecular target: T1, MAO-A (Homo sapiens, UniProt P21397); assay: MAO-Glo luminescent assay, MAO-A inhibition; format: biochemical; conditions: for inhibiting the enzymatic activity of MAO-A (result in words): compared among isomyosmine, myosmine, anatabine, anabasine, nornicotine, clorgyline positive control, FIG. 3
T1 construct: purchased
T1 sequence (P21397 1-527): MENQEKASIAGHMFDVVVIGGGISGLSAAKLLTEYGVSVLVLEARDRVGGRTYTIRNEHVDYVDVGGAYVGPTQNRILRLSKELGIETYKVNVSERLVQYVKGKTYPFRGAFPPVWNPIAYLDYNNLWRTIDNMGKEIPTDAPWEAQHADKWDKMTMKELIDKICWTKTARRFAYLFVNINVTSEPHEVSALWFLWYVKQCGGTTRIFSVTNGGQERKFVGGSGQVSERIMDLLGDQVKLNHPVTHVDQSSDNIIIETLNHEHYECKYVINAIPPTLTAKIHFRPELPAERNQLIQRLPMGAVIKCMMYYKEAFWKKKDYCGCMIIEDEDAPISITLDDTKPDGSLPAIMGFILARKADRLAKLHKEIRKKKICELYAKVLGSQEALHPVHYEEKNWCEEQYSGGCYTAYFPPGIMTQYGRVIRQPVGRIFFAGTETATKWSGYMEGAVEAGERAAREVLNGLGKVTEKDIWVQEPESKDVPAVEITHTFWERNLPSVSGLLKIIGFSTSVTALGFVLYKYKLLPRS
From the text: (§1) This example describes experiments for determining monoamine oxidase (MAO) inhibition for isomyosmine and other alkaloids. MAOs are enzymes located on the outer membrane of mitochondria and are involved in the catabolism of monoamine neurotransmitters. There are two well-characterized isoenzymes: MAO-A, which predominantly catabolizes serotonin and norepinephrine, and MAO-B, which preferentially catabolizes benzylamine and phenylethylamine. Dopamine and tyramine are metabolized by both isoforms.
(§2) To detect the activity of MAO, a luminescent method (MAO-Glo Assay kit, from Promega, Cat # V1401) was used. In this method, a MAO substrate (a derivative of beetle luciferin provided in the kit) is mixed with the compound to be tested (in this case, myosmine and control compounds). Then, the MAO enzymes (either A or B, purchased separately) are added to the mixture and incubated with the reaction for 1 hour at room temperature. The MAO enzymes, if not inhibited by the test compound, will convert the substrate into methyl ester luciferin. Finally, a luciferin detection reagent (provided by the kit) is added (20 minutes at room temperature) to stop the MAO reaction and convert methyl ester luciferin into D-luciferin. D-luciferin reacts with luciferase to produce a luminescent signal, which is directly proportional to the D-luciferin concentration and thus the MAO activity: the greater the amount of light produced the higher the activity of MAO. The luminescent signal is measured and recorded using a luminometer.
The following materials were obtained from Toronto Research Chemicals, North York, ON: isomyosmine, catalog # 1821350; myosmine, catalog # M835000; anabasine, catalog # A637175; and nornicotine, catalog # N756995. Anatabine was obtained from Emerson Resources, Norristown, PA.

MAO-B = molecular target: T2, MAO-B (Homo sapiens, UniProt P27338); assay: MAO-Glo luminescent assay, MAO-B inhibition; format: biochemical; conditions: compared among isomyosmine, myosmine, anatabine, anabasine, nornicotine; FIG. 4
T2 construct: purchased
T2 sequence (P27338 1-520): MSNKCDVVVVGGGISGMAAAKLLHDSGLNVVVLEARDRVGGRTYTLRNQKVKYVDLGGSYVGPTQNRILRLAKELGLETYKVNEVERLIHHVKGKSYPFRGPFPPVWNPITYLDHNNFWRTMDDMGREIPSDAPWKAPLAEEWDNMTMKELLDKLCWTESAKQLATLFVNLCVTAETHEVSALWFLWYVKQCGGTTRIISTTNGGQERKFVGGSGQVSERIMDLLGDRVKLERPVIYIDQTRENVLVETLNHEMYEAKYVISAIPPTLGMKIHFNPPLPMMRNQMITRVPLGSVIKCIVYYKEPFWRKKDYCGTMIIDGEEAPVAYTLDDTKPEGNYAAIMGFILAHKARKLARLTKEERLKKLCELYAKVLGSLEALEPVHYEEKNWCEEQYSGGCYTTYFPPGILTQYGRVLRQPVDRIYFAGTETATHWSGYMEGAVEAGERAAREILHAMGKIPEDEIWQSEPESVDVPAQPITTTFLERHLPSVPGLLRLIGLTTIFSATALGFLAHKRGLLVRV
From the text: as §1
as §2, with “D-luciferin reacts with luciferase to produce a luminescent signal, which is directly proportional to the D-luciferin concentration and thus the MAO activity: the greater the amount of light produced the higher the activity of MAO.” left out, “luminometer. […]” for “luminometer.”

[1] = Blood oxygen saturation (SpO2) by pulse oximetry in individuals; format: in vivo, human; conditions: seven individuals, one hour after single dose 50-100 mg
From the text: This example illustrates the effect of isomyosmine on normal blood oxygen saturation levels (SpO2). SpO2 refers to peripheral capillary oxygen saturation, an estimate of the amount of oxygen in the blood. More specifically, it is the percentage of oxygenated hemoglobin (hemoglobin containing oxygen) compared to the total amount of hemoglobin in the blood (oxygenated and non-oxygenated hemoglobin). SpO2 can be measured by pulse oximetry, an indirect, non-invasive method. It works by emitting and then absorbing a light wave passing through blood vessels (or capillaries) in the fingertip. A variation of the light wave passing through the finger will give the value of the SpO2 measurement because the degree of oxygen saturation causes variations in the blood's color.

[2] = Topical administration for wound healing; format: in vivo; conditions: e.g. surgical incisions
From the text: A method, not falling within the scope of the claimed subject-matter, of treating a wound is also described herein which comprises administering to an individual in need thereof a pharmaceutical composition containing a therapeutically effective amount of isomyosmine or a pharmaceutically acceptable salt thereof.

Row | Compound | inhibiting the enzymatic activity of MAO-A (result in words) (MAO-A) | inhibiting the enzymatic activity of MAO-A (result in words) (MAO-A; listed as Isomyosmine) | inhibition at 2000 µM (MAO-A; read-out: inhibition of MAO-A) [%] | inhibiting the activity of MAO-B (result in words) (MAO-B) | blood oxygenation (result in words) [1] | wound healing (result in words) [2]
1 | C1=NC(c2cccnc2)CC1 (stereo not shown) [isomyosmine, 3-(3,4-dihydro-2H-pyrrol-2-yl)-pyridine] | most potent of the five | potent inhibitor | ~50 | most potent among the five alkaloids tested; also recorded: potent inhibitor | significant increase in blood oxygenation | dramatically improve healing
2 | C#CCN(C)CCCOc1ccc(Cl)cc1Cl [clorgyline, reference compound] | greatly shifted leftward |  |  |  |  | 
